# Patent US11918610B2, “Methods for diagnosis and treatment of type 1 diabetes” (priority 2018, dated 2024)
# No end group written: not given here.
# Experiments:
# [1] = test system: non-obese diabetic mice (NOD/ShiLtJ) colonized with E. coli VT-55; type: in vivo; details: NOD mice gavaged with E. coli VT-55; regimen of each agent as in Table 3; positive control (no therapy) 16, negative controls 24 and 26
# Procedure: For this study non-obese diabetic mice (NOD/ShiLtJ) 8 weeks old (Jackson Laboratory, Bar Harbor, Me., USA) were housed and bred under specific pathogen-free conditions. Mice were maintained in a temperature controlled (22±2° C.) animal facility with a 12 hour light/dark cycle and were allowed free access to food and acidified drinking water. To increase the efficacy of E. coli transfer, all animals were exposed to antibiotic treatment before the transfer of E. coli. Starting at three weeks of age, recipient mice were treated with ampicillin (1 g/L) in the drinking water for the next 4 weeks. The bacterial strains used: E. coli strain VT-55—a wild-type, amyloid-producing strain. E. coli VT-55 bacteria were administered with oropharyngeal gavage to 8 week old female mice at 10^8 CFU, 2 times a week. Acceleration of T1D development was accessed by measuring blood glucose in a manner consistent with diabetes monitoring, using a FreeStyle Lite meter and test strips (Abbott). Blood glucose was evaluated weekly via a tail vein. T1D development was defined as occurring after two consecutive blood glucose measurements of at least 250 mg/dL.
# TTR was expressed in E. coli VT-243. The TTR protein was precipitated from the supernatant of a 48 hour culture of E. coli VT-243 after centrifugation (12,000×g, 20 minutes 4° C.) of the lysed cells in the gradient 40-90% ammonium sulfate fraction (1.8-3.6 M). The precipitate that contained TTR was dialyzed overnight against 10 mM sodium phosphate buffer, pH 7.5, 100 mM KCl, 1 mM EDTA. The same volume of 200 mM sodium acetate buffer (pH 4.4, 100 mM KCl, 1 mM EDTA) was added to achieve a final pH of 4.5, and the mixture was then incubated for 18 hours at 37° C. Following centrifugation (45 min, 30,000×g, 4° C.), the supernatant was gel filtrated (Superdex 75) to elute phosphate buffer.
# To develop nanoparticles with siRNA, we used cholesterol, distearoyl-sn-glycerol-3-phosphocholine (DSPC) and PEG2000-DMG (all Sigma). Nanoparticles were prepared by dissolving the 306013 lipidoid, cholesterol, DSPC, and PEG2000-DMG with final molar ratio of 50:38.5:10:1.5 in a 90% ethanol enriched with 10% 10 nM sodium citrate. Particles were formed following vortexing of equal volumes of siRNA solution with the lipid solution and subsequent dilution in PBS. Mice were orally gavaged with nanoparticles loaded with siRNA at a dose of 5 mg/kg.
# The EcVac vaccine consisted of conjugates containing the 0-antigens of serotypes 06 of E. coli VT-55. […] The suspension for iv administration was made in TBS, (pH 7.4; 25 mmol Tris, 137 mmol NaCl, 2.8 mmol KCl).
# Balb/c mice were immunized (10 μg) intraperitoneally and boosted (1 μg) subcutaneously with the E. coli amyloid isolated as previously described. Splenocytes were removed under sterile conditions, washed and hybridized to murine plasmacytoma parent cell line SP2/OAg14 using 40% polyethylene glycol and a spleen cell to plasmacytoma cell ratio of 5:1. Cells were plated in 96-well microtiter (Sarstedt) plates at 100,000 cells/per well with DMEM supplemented with 10% fetal bovine serum. Following 48h, cells were supplemented with hypoxanthine (100 PM) containing medium. After three washes with PBS-1% BSA, the presence of specific antibody binding was detected by ELISA. Serotype specific wells were cloned. Pristine-primed BALB/c mice were IP injected with 1×10^7 hybridoma cells. Ascites fluid was collected 14 days later, centrifuged (5000 g, 20 min, Eppendorf) and stored at −80° C. before use.
# [2] = test system: MG1655 wild-type lysogenic strain (bacteriophage λ) biofilm; assay: Prophage induction with mitomycin C in E. coli biofilm: PFU numbers (phage plaque assay); type: cell-based, Escherichia coli; details: for PFU numbers: prophage induction with 1 μg/ml mitomycin C, 48h biofilm; for PFU: Table 17, prophage induction with mitomycin C, 48-h biofilm
# Procedure: (§1) We used 48h old E. coli biofilms formed by amyloid-producing E. coli VT-55. Bacteriophages λ (from our collection) were employed. E. coli lysogenic strains were obtained by infection of host bacteria with phage. Prophages were induced with 1 μg/ml mitomycin C (Sigma). To confirm lytic development of bacteriophage we measured an increase in the number of plaque forming units (PFU) and the reduction of bacterial colony-forming units CFU numbers, throughout the 4 h to 10 h period (Table 2). The PFU number in E. coli biofilm was determined by the production of plaques on control E. coli culture.
# (§2) Next, the E. coli phage/E. coli bacterial cell ratio, which represents the “lytic potential” (FIG. 6) (Waller et al., 2014), was analyzed. E. coli strain MG1655 was used as a host for prophage induction experiments (Jensen 1993). Bacteria were subcultured from freezer stocks onto Mueller-Hinton agar plates (Oxoid) and incubated at 37° C. overnight. All subsequent liquid subcultures were derived from colonies isolated from these plates and were grown in Mueller-Hinton broth (Oxoid). Bacteriophage λ from the inventors' collection was employed. Bacteriophage suspensions were routinely stored in TM buffer (10 mM Tris-HCl, 10 mM MgSO4, pH 7.2) at 4° C. E. coli lysogenic strains were obtained by infection of E. coli MG1655 with the phage and titration of cells on Mueller-Hinton agar plates as previously described (Maniatis et al. 1989). For prophage induction, Mitomycin C (Sigma-Aldrich) was prepared in 0.1 M phosphate buffer (pH 7.2), filtered through a 0.22-μm-pore filter (Millipore Corp., Bedford, Mass.), and stored at 4° C. (Georgopoulos et al., 2002). A modified protocol according to Reyrolle et al. designed for prophage induction on 96-well plates was used (Reyrolle et al., 1982; McDonald et al., 2010). Twenty microliters of an overnight E. coli MG1655 culture, with an absorbance at 600 nm of 0.2, was dispensed in each well of a 96-well flat-bottom polystyrene tissue culture microtiter plate (Sarstedt, Numbrecht, Germany), after which 180 μl of MHB (Oxoid) was added. The plates were incubated at 37° C. for 48 h. Induction of prophages in the E. coli biofilms was provoked by the addition of mitomycin C (Sigma) to a final concentration 1 μg/ml to each well. The plates were further incubated at 37° C. and samples were taken at 4, 6, 8, and 10 h following prophage induction.
# (§3) The inventors evaluated how the die-off of E. coli populations due to prophage induction could lead to amyloid release. The inventors used 48-h old E. coli biofilms with confirmed curli expression. Curli formation on 48-h colonies was visible with the naked eye on petri dishes (data not shown). Prophages were induced with mitomycin C. Lytic bacteriophage development was confirmed as an increase in plaque forming units (PFU) and a reduction in colony-forming units (CFU).
# (§4) CFU and PFU were determined as follows. To estimate CFU, biofilms were thoroughly scraped (Tetz et al., 2009). Well contents were aspirated, placed in 1 ml of isotonic phosphate buffer (0.15 M, pH 7.2), and the total CFU number was determined by serial dilution and plating on Mueller-Hinton agar. The number of phage virions produced after induction was estimated by phage titration (using strain MG1655 as a host) and phage plaque assay. Following induction, at the indicated times 200-μl samples of biofilms were collected. Then, 30 μl of chloroform was added to each sample, the mixture was vortexed and centrifuged at 3000×g for 5 min in a microcentrifuge (Eppendorf 5415D). A supernatant fraction of the bacterial lysate was further used. The phage titer (number of phages per ml) was determined using the double agar overlay assay method as described previously (Yuan et al., 2012). To this end, 2.5 μl of each titration point of phage lysate was spotted on Mueller-Hinton agar (Oxoid). […]
# E. coli biofilm = assay: Release of bacterial amyloid from E. coli biofilm after prophage induction (Congo Red absorbance of supernatant); type: cell-based, Escherichia coli; details: for Congo Red absorbance of biofilm supernatant (release of bacterial amyloid): 10h following prophage induction
# Procedure: Next, the effect of prophage induction on E. coli biofilm to amyloid release was evaluated. The amount of amyloid fibers in the biofilm supernatant was determined following prophage induction. Biofilm supernatant was collected and centrifuged at 5000 rpm (Eppendorf 5113) to sediment cells. Supernatant was filtered with […] and heated to eliminate contaminating proteins by incubating in a boiling water bath for 10 minutes, under the assumption that the aggregated β-sheet amyloid is heat resistant. To quantify the amount of aggregated amyloid, its binding to the amyloid diagnostic dye Congo Red (CR) was evaluated (Table 12). CR added to a final concentration of 10 μg/mL at pH 4.5 was tested using a BioRad UV/Vis spectrophotometer at 25° C. After 5 minutes of equilibration, the absorbance spectra were recorded from 400 to 600 nm. Each trace represents the average of 3 accumulated spectra.
# Next, the inventors evaluated the effect of prophage induction on the amount of amyloid fibers released into the biofilm supernatant. Supernatant CR depletion assays were performed as follows. The amount of bacterial amyloid following prophage induction was measured in the supernatant of E. coli MG1655 biofilms. Biofilms were obtained as described above. Biofilm supernatant was taken at 4, 6, 8, and 10 h following prophage induction. To isolate aggregated amyloid fibers from the supernatant, the supernatant was centrifuged at 10,000×g, filtered through a 0.22 μm filter to separate bacterial cells, and treated with proteinase K to eliminate contaminating proteins. CR (Sigma-Aldrich) was added to a final concentration of 10 μg/ml from a filtered stock solution of 1 mg/ml (Reichhardt et al., 2015). After 5 min of equilibration, absorbance spectra were recorded from 400 to 600 nm (SmartSpec 3000, Bio-Rad). Each trace represents the average of 5 accumulated spectra. For all samples, spectra of corresponding nutrient MHB solutions with CR were used as blanks.
# To quantify the amount of aggregated amyloid, its binding to the amyloid-diagnostic dye was evaluated by a Congo red (CR) assay (Reichhardt et al., 2015). A significant increase in CR absorbance was observed upon binding to supernatant 8 h following prophage induction as compared with control samples (FIG. 7). Like for other curli fibers, […] of the E. coli supernatant induced a spectral shift of the CR solution, with a maximum difference in absorbance between CR alone and CR bound to amyloid fibers at ˜541 nm (Chapman et al., 2002).
# [3] = test system: MG1655 wild-type lysogenic strain biofilm; assay: Prophage induction with mitomycin C in E. coli biofilm: CFU numbers; type: cell-based, Escherichia coli; details: for CFU numbers: prophage induction with 1 μg/ml mitomycin C, 48h biofilm; for CFU: Table 17, prophage induction with mitomycin C, 48-h biofilm
# Procedure: as §1, §2, §3, §4
# [4] = 48-h old E. coli biofilms, mitomycin C 1 μg/ml
compound,measurement,setting,value
"O=C(O)C1CSC2=C(C3CC3)C(Cc3cccc4ccccc34)CC(=O)N21 (stereo not drawn) [8-cyclopropyl-7-(1-naphthylmethyl)-5-oxo-2,3,6,7-tetrahydro-5H-[1,3]thiazolo[3,2-a]pyridine-3-carboxylic acid]",Median T1D incidence 50% (weeks),[1],21 weeks
"GGVLVQPG [Larazotide, Glycylglycyl-L-valyl-L-leucyl-L-valyl-L-glutaminyl-L-prolyl-glycine, reference compound]",Median T1D incidence 50% (weeks),[1],24 weeks
"C[C@H]1c2cccc(O)c2C(=O)C2=C(O)[C@]3(O)C(=O)C(C(N)=O)=C(O)[C@@H](N(C)C)[C@@H]3[C@@H](O)[C@@H]21 [Doxycycline, reference compound]",Median T1D incidence 50% (weeks),[1],25 weeks
CO[C@@]12[C@H](COC(N)=O)C3=C(C(=O)C(C)=C(N)C3=O)N1C[C@@H]1N[C@@H]12 [Mytomicin C],PFU numbers,[2]; 4 h,2.3log10 +/− log10 PFU/ml
same,PFU numbers,[2]; 6 h,9.3log10 +/− log10 PFU/ml
same,PFU numbers,[2]; 8 h,10.4log10 +/− log10 PFU/ml
same,PFU numbers,[2]; 10 h,11.2log10 +/− log10 PFU/ml
same,Congo Red absorbance of biofilm supernatant (release of bacterial amyloid),E. coli biofilm; wavelength 400 nm,0
same,Congo Red absorbance of biofilm supernatant (release of bacterial amyloid),E. coli biofilm; wavelength 450 nm,0.156
same,Congo Red absorbance of biofilm supernatant (release of bacterial amyloid),E. coli biofilm; wavelength 500 nm,0.338
same,Congo Red absorbance of biofilm supernatant (release of bacterial amyloid),E. coli biofilm; wavelength 541 nm,0.421
same,Congo Red absorbance of biofilm supernatant (release of bacterial amyloid),E. coli biofilm; wavelength 550 nm,0.345
same,Congo Red absorbance of biofilm supernatant (release of bacterial amyloid),E. coli biofilm; wavelength 600 nm,0.015
same,CFU numbers,[3]; 4 h,8.8log10 +/− log10 CFU/ml
same,CFU numbers,[3]; 6 h,8.2log10 +/− log10 CFU/ml
same,CFU numbers,[3]; 8 h,7.6log10 +/− log10 CFU/ml
same,CFU numbers,[3]; 10 h,7.4log10 +/− log10 CFU/ml
"CCCCCCCO[C@H]1O[C@H](CO)[C@@H](O)[C@H](O)[C@@H]1O [n-Heptyl α-D-mannose, reference compound]",Median T1D incidence 50% (weeks),[1],22 weeks
"CO[C@@]12[C@H](COC(N)=O)C3=C(C(=O)C(C)=C(N)C3=O)N1C[C@@H]1N[C@@H]12 [mitomycin C, reference compound]",Plaque forming units (PFU) after prophage induction (in words),[2]; [4],increase
same,Amyloid release from preformed E. coli biofilms after prophage activation (in words),"E. coli biofilm; in vitro, mitomycin C 1 μg/ml, 48 h biofilms",pronounced amyloid release
same,Colony-forming units (CFU) after prophage induction (in words),[3]; [4],reduction
CO[C@@]12[C@H](COC(N)=O)C3=C(C(=O)C(C)=C(N)C3=O)N1C[C@@H]1N[C@@H]12 [mytomicin C],PFU,[2]; 4 h,2.3 log10 PFU/ml
same,PFU,[2]; 6 h,9.3 log10 PFU/ml
same,PFU,[2]; 8 h,10.4 log10 PFU/ml
same,PFU,[2]; 10 h,11.2 log10 PFU/ml
same,CFU,[3]; 4 h,8.8 log10 CFU/ml
same,CFU,[3]; 6 h,8.2 log10 CFU/ml
same,CFU,[3]; 8 h,7.6 log10 CFU/ml
same,CFU,[3]; 10 h,7.4 log10 CFU/ml
Transthyretin: mouse Transthyretin expressed in E. coli VT-243,Median T1D incidence 50% (weeks),[1],24 weeks
